Assay results as given in PMC9276671, “A first-in-human Phase I dose-escalation trial of the novel therapeutic peptide, ALM201, demonstrates a favourable safety profile in unselected patients with ovarian cancer and other advanced solid tumours” (British Journal of Cancer, 2022).
Read-outs that look alike come from different tables or passages of the source. No end group written: not given here.

Key:
[1] = Mouse, 3mg/kg SC, male animals; ref Investigator brochure (IB); cited from earlier work
[2] = system: ovarian patient-derived xenograft models; details: cited from earlier work
[3] = Rat, 5mg/kg SC, male animals; ref Investigator brochure (IB); cited from earlier work
heparinised human blood = details: alone or with Staphylococcus Enterotoxin B, 10^-8 to 10^-6 M, ref Investigator brochure (IB); cited from earlier work
[4] = Urinary excretion of unchanged ALM201 (LC-MS/MS); format: in vivo; details: human, sc, patients with positive urine concentrations, urine collected over 6 h after dosing, day 1 cycle 1, read-out: Amount excreted in the urine, % of the administered dose, mean (±SD)
tubulin = system: tubulin; set-up: method as in Investigator brochure (IB); details: ref Investigator brochure (IB), read-out: Tubulin polymerisation IC50, cited from earlier work
[5] = Dog, 5mg/kg SC, male animals; ref Investigator brochure (IB); cited from earlier work
[6] = system: DU145 and HT29 xenografts; details: 3.0 mg/kg/day and 0.3 mg/kg/day, 14-day period, BALB-c SCID mouse, ref Investigator brochure (IB); cited from earlier work
Protocol: In vivo studies using a BALB-c SCID mouse xenograft model with DU145 and HT29 cell-lines, where the small tumours can be directly examined in situ using confocal and standard microscopy have shown that administration of ALM201 inhibits a range of markers of new blood vessel formation. Tumours were typically 1-2 mm at baseline and assessments taken over a 14-day period. Dose levels of 3.0 mg/kg/d ...

[7] = system: angiogenesis and cell migration and invasion; details: cited from earlier work
From the text: Early investigations into the mechanism of action for ALM201 reported that the peptide is internalised into CD44-expressing cells and targets microtubules inhibiting migration and invasion in cancer and endothelial cells, similar to vascular disrupting agents. However, it was unclear if this was the principal mechanism of inhibiting angiogenesis or if other factors, such as inhibiting endothelial cell migration and inva ...

xenograft = details: rat xenograft model, 3 mg/kg; ref Investigator brochure (IB); cited from earlier work
Protocol: page 41: Almac Discovery Confidential 1.5 Rationale for Dose Selection Based on GLP, 28-day, repeat dose toxicology studies in the dog and rat, the NOAEL for ALM201 was not defined at the maximum dose evaluated of 50 mg/kgxiv. Therefore, based on standard allometric scaling based on the FDA guidelines (FDA, 2005 ), it is predicted that a human equivalent dose (HED) range of 8–28 mg/kg could be given without any drug-related adverse effects. Assuming a starting dose calculation based on a 10-fold safety margin in the most conservative model (the rat); the starting dose would be 0.8 mg/kg. Due t ...

[8] = system: HMEC-1, a human vascular endothelial cell-line; details: protocol Table 3; ref Investigator brochure (IB); read-out: Wound scrape IC50; cited from earlier work
From the text: page 37: Almac Discovery Confidential There are five main histological subtypes of ovarian cancer differing in tissue of origin, stage of presentation, sensitivity to chemotherapy, survival and driver genetic mutations. The most aggressive of these subtypes are the high grade serous tumours. […] ALM201 also had no effect on cytok ...

advanced solid tumours = assay: Tumour response by RECIST 1.1; format: in vivo, human
Protocol: Tumour assessment by imaging (CT scan or MRI scan as appropriate for tumour type) was assessed in all patients at initial screening and after every two cycles of treatment (i.e., every 6 weeks) during cycles 1–8 (i.e., first 24 weeks), and then after every four cycles of treatment (i.e., every 12 weeks) from cycle nine onwards. Scans were reported according to RECIST version 1.1.

[9] = Safety and tolerability: adverse events and DLT (CTCAE v4.03); format: in vivo
Protocol: Eligible participants were enrolled in sequential cohorts treated with a subcutaneous (SC) injection of ALM201, with close monitoring for safety and dose-limiting toxicities (DLTs). Dose levels were not weight-adjusted, and the starting dose for the study was 10 mg ALM201 given on days 1–5, 8–12 and 15–19 every 21 days, i.e., weekday dosing to be given continuously. […] Every new dose cohort was evaluated for the occurrence of a DLT during treatment cycle 1.
This study commenced with an accelerated dose-escalation design, then switched to a conventional algorithm (3 + 3 patients per dose level) to identify the maximum tolerated dose (MTD), escalating on observation of 0/3 or 1/6 DLTs, and de-escalating if two or more patients with DLTs were encountered.
Safety assessments included physical examination, vital signs, biochemistry and haematology laboratory screens, plus immunogenicity testing. Safety evaluations were conducted weekly during each treatment cycle, with DLT assessed during cycle one only. All events and suspected DLTs were graded according to the Common Toxicity Criteria for Adverse Events (CTCAE), version 4.03.

IRQQPRDPPTETLELEVSPDPAS [ALM201]
AUC24 (figure is for AUC0-∞) [1]: 2166 ng·h/mL | Cmax [1]: 3477 ng/mL | Half-life [1]: 12 min | Tmax [1]: 10 min | Tumour growth inhibition [2]: > 60% | AUC24 [3]: 4320 ng·h/mL | Cmax [3]: 3400 ng/mL | Half-life [3]: 36 min | Tmax [3]: 30 min | Effect on cytokine release and T-cell proliferation (heparinised human blood): no effect | dose excreted [4]: 0.074% | IC50 (tubulin; protocol Table 2): 100 pM | IC50 (tubulin; protocol Table 3): 110 pM | AUC24 [5]: 7300 ng·h/mL | Cmax [5]: 2030 ng/mL | Half-life [5]: 144 min | Tmax [5]: 60 min | Average vessel diameter, average segment length and vessel branch number [6]: significant decreases | Activity in standard in vitro and ex vivo assays of angiogenesis, cell migration and invasion [7]: low picomolar activity | Anti-tumour activity (xenograft): significant anti-tumour | IC50 [8]: 9 pM | Stable disease / disease control rate (advanced solid tumours; 7/20 patients, stable disease for up to four cycles): 35% | Disease progression (advanced solid tumours; 12 of 20 patients): 60% | Partial or complete responses (advanced solid tumours; all patients): No partial or complete responses | Patients with SD until the end of cycle 4 (advanced solid tumours; in vivo): Three | Maximum tolerated dose (MTD) ([9]; SC weekday doses of up to 300 mg): not reached | CTCAE grade 4-related toxicities ([9]; all dose levels): no CTCAE grade 4-related toxicities | Thrombotic events, number of patients ([9]; cohort 8 (100 mg) and cohort 1 (10 mg)): two | Dose-limiting toxicities (DLTs) ([9]; cycle 1, 10-300 mg SC): No DLTs | Abdominal wall bruising, causality ([9]; in vivo): Definite | Anorexia, causality ([9]; in vivo): Possible | Arthralgia, causality ([9]; in vivo): Possible | Blurred vision, causality ([9]; in vivo): Probable | Depression, causality ([9]; in vivo): Possible | Diarrhoea, causality ([9]; in vivo): Possible | Fatigue, causality ([9]; in vivo): Possible | Headache, causality ([9]; in vivo): Possible | Hot flushes, causality ([9]; in vivo): Possible | Injection-site erythema, causality ([9]; in vivo): Definite | Injection-site immune reaction, causality ([9]; in vivo): Definite | Injection-site pain, causality ([9]; in vivo): Definite | Nausea, causality ([9]; in vivo): Possible | Oral candidiasis, causality ([9]; in vivo): Possible | Pedal oedema, causality ([9]; in vivo): Possible | Pruritus, causality ([9]; in vivo): Definite | Pulmonary embolus, causality ([9]; in vivo): Possible | Pyrexia, causality ([9]; in vivo): Possible | Urinary tract infection, causality ([9]; in vivo): Possible | Venous thrombus, causality ([9]; in vivo): Possible | Vomiting, causality ([9]; in vivo): Possible
